Assay results published in US9266900B2, “Additives for improved isohexide products” (ARCHER DANIELS MIDLAND COMPANY, priority 2012, dated 2016).
Values joined by “and” are separate entries in the source; they are usually repeats but may differ in a detail not shown here. Equal values may be shown once.

Columns and labels:
[1] = stable = formic acid less than 5 ppm and monoanhydrohexoses less than 50 ppm, dry weight basis; cited from earlier work
[2] = Solubility and retention of stabilizer in isosorbide product; settings: 85% solution isosorbide product
[3] = Distillation of crude isosorbide mixture with added antioxidant: co-distillation and initial distillate color; type: physicochemical; settings: for antioxidant recovered in the distillate, yield: co-distilled with isosorbide; for initial APHA color of the neat distillate: neat distillate after distillation, ASTM D1209; for additive distilled with the isosorbide / recovered in the distillate by UPLC analysis: short path distillation, oil bath 185 to 195 degrees Celsius, less than 2 torr
Description: A 500 mL boiling flask equipped with a Teflon stir bar was charged with 100 g of ion-exchanged (strong acid cation/strong base anion-exchanged), dewatered, molten isosorbide. While stirring, 40.02 mg of 2,6-di-tert-butyl-4-methoxyphenol (DTMP), previously dissolved in 2 mL of absolute ethanol, was added via pipette, indicating the DTMP concentration as 400 ppm in the matrix. The flask was then outfitted with a still head, condenser, and receiver, placed under a vacuum of <2 torr, and placed in a digitally controlled oil bath. The bath was gradually heated to 190 degrees Celsius while maintaining a vacuum. At a bath temperature of approximately 155 degrees, isosorbide began to distill (vapor temperature of 150 deg C.). Continuous distillation occurred for approximately 30 minutes. 45.6 grams of clear, colorless isosorbide was collected, whose APHA color was measured as 6. Quantitative analysis by UPLC determined the concentration of DTMP in the distilled isosorbide to be 503 ppm.
In this as in subsequent examples, a quantity of an antioxidant under evaluation was dissolved in 1-2 mL of absolute ethanol and then added via pipette to a crude isosorbide mixture which had been treated previously to remove ionic species therefrom. Amounts were set so that the concentration of the antioxidant in the crude isosorbide mixture was in the range of from 250 to 900 ppm by weight. The stabilized crude isosorbide mixtures were then distilled in turn in a short path, jacketed distillation apparatus consisting of a 250 cc 3 neck boiling flask containing a PTFE magnetic stir bar in which one neck was fitted with a rubber septum, a thermocouple extended into the mixture being distilled from a central neck, and the third neck was equipped with the short path head leading to a boiling flask receiver maintained at 80 degrees Celsius. The boiling flask was immersed in an oil bath maintained at from 185 to 195 degrees Celsius, and distillation occurred under a vacuum pressure of less than 2 torr.

[4] = Heating of isosorbide distillate in 200° C. oil bath for 1 hr under air, APHA color by UV/vis; type: physicochemical; settings: 0.5 g diluted with 2 mL water
Description: About, an 11 gram sample of the isosorbide distillate was added to a glass tube and capped with a septum. The glass tube was then submerged in a 200° C. oil bath for 1 hr under air. Approximately 0.5 g of the heated distillate sample was subsequently diluted with 2 mL of water and analyzed by UV/vis to obtain an APHA color value. An APHA color of approximately 250 was observed, compared to an APHA value for a distillate sample absent the DTMP additive that was offscale (>500).
About an 11 gram sample of the isosorbide distillate was added to a glass tube and capped with a septum. The glass tube was then submerged in a 200° C. oil bath for 1 hr under air.

[5] = Thermal aging of 85% solution of the distillate in water at 85 deg C. up to 28 days; type: physicochemical; settings: for formic acid concentration, final sample / APHA color, day 28 / formic acid concentration, initially / APHA color, time zero / furfural concentration, final sample / furfural concentration, initially: 85% solution; for formic acid concentration, final sample / APHA color, day 28 / furfural concentration, final sample: 85 deg C.; for formic acid concentration, final sample / furfural concentration, final sample: 28 days; for APHA color, day 28: day 28, final diluted (20%); for formic acid concentration, initially / furfural concentration, initially: initial; for APHA color, time zero: diluted (20%)
[6] = Thermal aging of neat distillate in 85 deg C. oven under air up to 28 days; type: physicochemical; settings: for color stability criteria after accelerated aging: 85 degrees Celsius, 4 weeks, APHA less than 200 neat distillate and less than 250 for 85% solution; for formic acid after 28 days / APHA color after 28 days / furfural after 28 days: 85 deg C.; for APHA color after 28 days: air, measured as a 20% solution; for APHA color, time zero: UV/vis
Description: The DTMP-stabilized distillate was further tested for color storage stability by thermal aging over a more extended period of time, in particular, by preparing typically five 10 mL headspace vials of each of the neat distillate and an 85% solution of the distillate in water in 0.5 gram sample portions. One vial of the set of five for the neat distillate or the 85% solution was set aside as the “time zero” data point. The time zero sample was diluted with 2 mL of water and analyzed.
For the neat distillate, the APHA color of the time zero sample was less than 20 by UV/vis. All other decomposition products were less than 5 ppm. The four other vials of the neat distillate were then placed in an 85 deg C. oven trader air, and one vial was removed at 7 days, another at 14 days, another at 21 days, and the last of the four at 28 days. Once removed from the oven, each sample was allowed to cool to room temperature and diluted with 2 mL of water. The sample was then analyzed by UV/vis, UPLC, LC-MS, and GC. After 28 days, APHA color, measured as a 20% solution, was only 28. Furfural and formic acid were measured at 18 ppm and 39 ppm, respectively.
The BBTC-stabilized distillate was further tested for color storage stability by thermal aging over a more extended period of time, in particular, by preparing typically five 10 mL headspace vials of each of the neat distillate and an 85% solution of the distillate in water in 0.5 gram sample portions. One vial of the set of five for the neat distillate or the 85% solution was set aside as the “time zero” data point. The time zero sample was diluted with 2 mL of water and analyzed.
For the neat distillate, the APHA color of the time zero sample was less than 1 by UV/vis. Formic acid concentration in the time zero sample was less than 5 ppm, while furfural concentration was less than 1 ppm. The four other vials of the neat distillate were then placed in an 85 deg C. oven under air, and one vial was removed at 7 days, another at 14 days, another at 21 days, and the last of the four at 28 days. Once removed from the oven, each sample was allowed to cool to room temperature and diluted with 2 mL of water. Each sample was then analyzed by UV/vis, UPLC, LC-MS, and GC. After 28 days, APHA color, measured as a 20% solution, was 191. Furfural and formic acid were measured at 298 ppm and 6,102 ppm, respectively.

[7] = Isosorbide (100% molten) mixed with additives, heated 1-2 hours at 200 degrees Celsius, accelerated aging tests; settings: additive screening

Compound	stability of composition according to the '477 patent [1]	initial APHA color of the neat distillate [3]	additive distilled with the isosorbide / recovered in the distillate by UPLC analysis [3]	formic acid concentration, final sample [5]	APHA color, day 28 [5]	formic acid concentration, initially [5]	APHA color, time zero [5]	formic acid after 28 days ([6]; neat distillate)	APHA color after 28 days ([6]; neat distillate)	formic acid concentration, time zero ([6]; neat distillate, time zero)	APHA color, time zero ([6]; neat distillate, time zero)	also measured
Cc1cc(C(C)(C)C)c(O)c(C(C)(C)C)c1 [BHT]	stable	–	–	–	–	–	–	–	–	–	–	–
O=P([O-])([O-])O.[Na+].[Na+] [Na2HPO4]	stable	–	–	–	–	–	–	–	–	–	–	–
[Na+].[OH-] [NaOH]	stable	–	–	–	–	–	–	–	–	–	–	–
COc1ccc(O)c(C(C)(C)C)c1 [BHA, butylated hydroxyanisole]	–	14.1 and 14	About 63%	44 ppm	30	less than 5 ppm	less than 1	21 ppm	40	less than 5 ppm	less than 15	solubility in 85% solution product [2]: continued good solubility; antioxidant recovered in the distillate, yield [3]: 63%; APHA color after heating [4]: 222; color stability criteria after accelerated aging [6]: criteria were met
CC(C)(C)c1cc(O)ccc1O [TBHQ, tert-butylhydroquinone]	–	–	Virtually a quantitative recovery	770 ppm	more than 500	less than 5 ppm	less than 1	3458 ppm	233	less than 5 ppm	110	furfural concentration, final sample [5]: 257 ppm; furfural concentration, initially [5]: less than 1 ppm; furfural after 28 days ([6]; neat distillate): 182 ppm; furfural concentration, time zero ([6]; neat distillate, time zero): less than 1 ppm
COc1cccc(OC)c1O [DMP, 2,6-dimethoxyphenol]	–	18.7	–	–	–	–	–	–	–	–	–	antioxidant recovered in the distillate, yield [3]: 64%; color stability criteria after accelerated aging [6]: met the criterion for either the neat distillate or the 85% solution product hut not for both
Cc1c(C)c2c(c(C)c1O)CCC(C)(C(=O)O)O2 (stereo not shown) [Trolox™, 6-hydroxy-2,5,7,8-tetramethylchromane-2-carboxylic acid]	–	15	About 26%	3360 ppm	more than 500	less than 5 ppm	5	3291 ppm	over 500	less than 5 ppm	15	furfural concentration, final sample [5]: 512 ppm; furfural concentration, initially [5]: less than 1 ppm; furfural after 28 days ([6]; neat distillate): 460 ppm; furfural concentration, time zero ([6]; neat distillate, time zero): less than 1 ppm; rate of color formation compared to control vials containing distillate alone ([6]; thermal aging, stabilized samples vs control): developed color more quickly
O=B[O-].[Na+] [NaBO2]	stable	–	–	–	–	–	–	–	–	–	–	–
COc1cc(C(C)(C)C)c(O)c(C(C)(C)C)c1 [DTMP, 2,6-di-tert-butyl-4-methoxyphenol]	–	–	–	250 ppm	150	–	0	39 ppm	28	–	less than 20	concentration of additive in the distilled isosorbide by UPLC ([3]; 400 ppm in the matrix before distillation): 503 ppm; antioxidant recovered in the distillate, yield [3]: 50%; APHA color after heating [4]: approximately 250; furfural concentration, final sample [5]: 88 ppm; furfural concentration, initially [5]: less than 5 ppm; 5-hydroxymethylfurfural (HMF) formation ([5]; 85% stabilized sample, aged): < 5 ppm; color stability criteria after accelerated aging [6]: met the criterion for either the neat distillate or the 85% solution product hut not for both; furfural after 28 days ([6]; neat distillate): 18 ppm; all other decomposition products, time zero ([6]; neat distillate, time zero): less than 5 ppm; 5-hydroxymethylfurfural (HMF) formation ([6]; neat stabilized sample, aged): < 5 ppm
O=C1O[C@H]([C@@H](O)CO)C(O)=C1O [vitamin C]	stable	–	–	–	–	–	–	–	–	–	–	–
COc1cc(C)cc(OC)c1O [DMMP, 2,6-dimethoxy-4-methylphenol]	–	13	About 84%	63 ppm	50	less than 5 ppm	5	74 ppm	17	less than 5 ppm	less than 15	solubility in 85% solution product [2]: continued good solubility; antioxidant recovered in the distillate, yield [3]: 84%; APHA color after heating [4]: 205; color stability criteria after accelerated aging [6]: criteria were met
C1COCCN1 [morpholine]	stable	–	–	–	–	–	–	–	–	–	–	–
CCCC(c1cc(C(C)(C)C)c(O)cc1C)c1cc(C(C)(C)C)c(O)cc1C [BBTC, 4,4′-butylidenebis(6-t-butyl-m-cresol)]	–	10	About 83%	4264 ppm	more than 500	less than 5 ppm	less than 1	6,102 ppm	191	less than 5 ppm	less than 1	APHA color after heating [4]: offscale; furfural concentration, final sample [5]: 298 ppm; furfural concentration, initially [5]: less than 1 ppm; furfural after 28 days ([6]; neat distillate): 298 ppm; furfural concentration, time zero ([6]; neat distillate, time zero): less than 1 ppm
C1OC1COC1COC2C(OCC3CO3)COC12 (stereo not shown) [isosorbide diglycidol ether]	–	–	–	–	–	–	–	–	–	–	–	effect on color stability of isosorbide [7]: ineffective in the absence of an antioxidant
